Read-outs that look alike come from different tables or passages of the source.
Key:
Format in all cases: in vivo
[1] = test system: Western Flower Thrips (Frankliniellla occidentalis (Pergande)); experiment: Test H: control of Western Flower Thrips through contact and/or systemic means; settings: 50 ppm spray; 6 days; 30% or less plant damage and/or 100% mortality
Procedure: (§1) Formulation and Spray Methodology for Tests A-H
(§2) Test compounds were formulated using a solution containing 10% acetone, 90% water and 300 ppm Activator 90® non-ionic surfactant (Loveland Products, Loveland, Colo., USA). The formulated compounds were applied in 1 mL of liquid through an atomizer nozzle positioned 1.27 cm (0.5 inches) above the top of each test unit. Test compounds were sprayed at the rates indicated, and each test was replicated three times.
For evaluating control of the Western Flower Thrips (Frankliniellla occidentalis (Pergande)) through contact and/or systemic means, the test unit consisted of a small open container with a 8-9-day-old Soleil bean plant inside.
Test compounds were formulated and sprayed at 250, 50, 10 and 2 ppm. After spraying, the test units were allowed to dry for 1 hour, and then ˜60 thrips (adults and nymphs) were added to each unit. A black, screened cap was placed on top, and the test units were held for 6 days at 25° C. and 45-55% relative humidity. Each test unit was then visually assessed for plant damage and insect mortality.

[2] = test system: green peach aphid (Myzus persicae (Sulzer)); experiment: Test E: control of green peach aphid through contact and/or systemic means; settings: 144 h
Procedure: as §1, §2
For evaluating control of green peach aphid (Myzus persicae (Sulzer)) through contact and/or systemic means, the test unit consisted of a small open container with a 12-15-day-old radish plant inside. This was pre-infested by placing on a leaf of the test plant 30-40 aphids on a piece of leaf excised from a culture plant (cut-leaf method). The aphids moved onto the test plant as the leaf piece desiccated. After pre-infestation, the soil of the test unit was covered with a layer of sand.
Test compounds were formulated and sprayed at 250, 50 and 10 ppm. After spraying of the formulated test compound, each test unit was allowed to dry for 1 hour and then a black, screened cap was placed on top. The test units were held for 6 days in a growth chamber at 19-21° C. and 50-70% relative humidity. Each test unit was then visually assessed for insect mortality.

[3] = test system: sweetpotato whitefly (Bemisia tabaci (Gennadius)); experiment: Test G: control of sweetpotato whitefly through contact and/or systemic means; settings: 312 h
Procedure: as §1, §2
For evaluating control of the sweetpotato whitefly (Bemisia tabaci (Gennadius)) through contact and/or systemic means, the test unit consisted of a small open container with a 12-14-day-old cotton plant inside. Prior to the spray application, both cotyledons were removed from the plant, leaving one true leaf for the assay. Adult whiteflies were allowed to lay eggs on the plant and then were removed from the test unit. Cotton plants infested with at least 15 eggs were submitted to the test for spraying.
Test compounds were formulated and sprayed at 250, 50 and 10 ppm. After spraying, the test units were allowed to dry for 1 hour. The cylinders were then removed, and the units were taken to a growth chamber and held for 13 days at 28° C. and 50-70% relative humidity. Each test unit was then visually assessed for insect mortality.

[4] = test system: cotton melon aphid (Aphis gossypii (Glover)); experiment: Test F: control of cotton melon aphid through contact and/or systemic means; settings: 144 h
Procedure: as §1, §2
[…] This was pre-infested with 30-40 insects on a piece of leaf according to the cut-leaf method, and the soil of the test unit was covered with a layer of sand.
Test compounds were formulated and sprayed at 250, 50 and 10 ppm. After spraying, the test units were maintained in a growth chamber for 6 days at 19° C. and 70% relative humidity. Each test unit was then visually assessed for insect mortality.

[5] = test system: corn planthopper (Peregrinus maidis (Ashmead)); experiment: Test C: control of corn planthopper through contact and/or systemic means; settings: for mortality at 50 ppm: Peregrinus maidis, 144 h
Procedure: as §1, §2
For evaluating control of corn planthopper (Peregrinus maidis (Ashmead)) through contact and/or systemic means, the test unit consisted of a small open container with a 3-4-day-old corn (maize) plant inside. White sand was added to the top of the soil prior to application of the test compound.
Test compounds were formulated and sprayed at 50 and 10 ppm. After spraying of the formulated test compound, the test units were allowed to dry for 1 h before they were post-infested with ˜15-20 nymphs (18-to-21-day-old). A black, screened cap was placed on the top of each test unit, and the test units were held for 6 days in a growth chamber at 22-24° C. and 50-70% relative humidity. Each test unit was then visually assessed for insect mortality.

[6] = test system: potato leafhopper (Empoasca fabae (Harris)); experiment: Test D: control of potato leafhopper through contact and/or systemic means; settings: 144 h
Procedure: as §1, §2
[…] White sand was added to the top of the soil, and one of the primary leaves was excised prior to application of the test compound.
Test compounds were formulated and sprayed at 250, 50 and 10 ppm. After spraying of the formulated test compound, the test units were allowed to dry for 1 hour before they were post-infested with 5 potato leafhoppers (18-to-21-day-old adults). A black, screened cap was placed on the top of the test unit, and the test units were held for 6 days in a growth chamber at 20° C. and 70% relative humidity. Each test unit was then visually assessed for insect mortality.

[7] = 10 ppm spray, 6 days, read-out: mortality
[8] = 50 ppm spray, 6 days, read-out: mortality
[9] = 50 ppm spray, 13 days, read-out: mortality

SMILES: CCN1OC[C@@H](NC(=O)c2ccc(C3=NOC(c4cc(Cl)cc(Cl)c4)(C(F)(F)F)C3)c3ccncc23)C1=O (stereo partly shown) [Compound 1]
- control efficacy: plant damage (and/or 100% mortality) [1]: ≤ 30%
- mortality at 250 ppm [2]: ≥ 80%
- mortality at 50 ppm [3]: ≥ 50%
- mortality at 250 ppm [3]: ≥ 50%
- mortality at 50 ppm [4]: ≥ 80%
- mortality at 250 ppm [4]: ≥ 80%

SMILES: O=C(NCc1ncccn1)c1ccc(C2=NOC(c3cc(Cl)c(F)c(Cl)c3)(C(F)(F)F)C2)c2ccncc12 (stereo not shown) [Compound 4, 5-[5-(3,5-dichloro-4-fluorophenyl)-4,5-dihydro-5-(trifluoromethyl)-3-isoxazolyl]-N-(2-pyrimidinylmethyl)-8-isoquinolinecarboxamide]
- mortality at 50 ppm [2]: ≥ 80%
- mortality at 50 ppm [5]: ≥ 80%
- mortality at 10 ppm [3]: ≥ 50%
- mortality at 50 ppm [3]: ≥ 50%
- mortality at 10 ppm [4]: ≥ 80%
- mortality at 50 ppm [4]: ≥ 80%
- mortality at 50 ppm [6]: ≥ 80%

SMILES: COC(=O)[C@@H](C)NC(=O)c1ccc(C2=NOC(c3cc(Cl)c(F)c(Cl)c3)(C(F)(F)F)C2)c2ccncc12 (stereo partly shown) [Compound 6]
- mortality at 10 ppm [2]: ≥ 80%
- mortality at 50 ppm [2]: ≥ 80%
- mortality at 50 ppm [5]: ≥ 80%
- mortality at 50 ppm [3]: ≥ 50%
- mortality at 10 ppm [4]: ≥ 80%
- mortality at 50 ppm [4]: ≥ 80%
- mortality at 50 ppm [6]: ≥ 80%

SMILES: O=C(NCc1ncccn1)c1ccc(C2=NOC(c3cccc(C(F)(F)F)c3)(C(F)(F)F)C2)c2ccncc12 (stereo not shown) [Compound 18]
- mortality at 10 ppm [2, 7]: ≥ 80%
- mortality at 50 ppm [2, 8]: ≥ 80%
- mortality at 50 ppm [5, 8]: ≥ 80%
- mortality at 50 ppm [4, 8]: ≥ 80%

SMILES: COCC(C)NC(=O)c1ccc(C2=NOC(c3cc(Cl)c(F)c(Cl)c3)(C(F)(F)F)C2)c2ccncc12 (stereo not shown) [Compound 20]
- mortality at 10 ppm [2]: ≥ 80%
- mortality at 50 ppm [2]: ≥ 80%
- mortality at 10 ppm [3]: ≥ 50%
- mortality at 50 ppm [3]: ≥ 50%
- mortality at 10 ppm [4]: ≥ 80%
- mortality at 50 ppm [4]: ≥ 80%
- mortality at 50 ppm [6]: ≥ 80%

SMILES: CC(C)NC(=O)c1ccc(C2=NOC(c3cc(Cl)c(F)c(Cl)c3)(C(F)(F)F)C2)c2ccncc12 (stereo not shown) [Compound 28]
- mortality at 10 ppm [2]: ≥ 80%
- mortality at 50 ppm [2]: ≥ 80%
- mortality at 10 ppm [3]: ≥ 50%
- mortality at 50 ppm [3]: ≥ 50%
- mortality at 10 ppm [4]: ≥ 80%
- mortality at 50 ppm [4]: ≥ 80%
- mortality at 50 ppm [6]: ≥ 80%

SMILES: CSCCNC(=O)c1ccc(C2=NOC(c3cccc(C(F)(F)F)c3)(C(F)(F)F)C2)c2ccncc12 (stereo not shown) [Compound 29]
- mortality at 50 ppm [2, 8]: ≥ 80%
- mortality at 50 ppm [5, 8]: ≥ 80%
- mortality at 50 ppm [4, 8]: ≥ 80%

SMILES: O=C(NC1CC1)c1ccc(C2=NOC(c3cc(Cl)cc(C(F)(F)F)c3)(C(F)(F)F)C2)c2ccncc12 (stereo not shown) [Compound 35, 5-[5-[3-chloro-5-(trifluoromethyl)phenyl]-4,5-dihydro-5-(trifluoromethyl)-3-isoxazolyl]-N-cyclopropyl-8-isoquinolinecarboxamide]
- mortality at 10 ppm [2]: ≥ 80%
- mortality at 50 ppm [2]: ≥ 80%
- mortality at 50 ppm [5]: ≥ 80%
- mortality at 10 ppm [3]: ≥ 50%
- mortality at 50 ppm [3]: ≥ 50%
- mortality at 10 ppm [4]: ≥ 80%
- mortality at 50 ppm [4]: ≥ 80%
- mortality at 10 ppm [6]: ≥ 80%
- mortality at 50 ppm [6]: ≥ 80%

SMILES: O=C(NCC1CC1)c1ccc(C2=NOC(c3cc(Cl)cc(C(F)(F)F)c3)(C(F)(F)F)C2)c2ccncc12 (stereo not shown) [Compound 36, 5-[5-[3-chloro-5-(trifluoromethyl)phenyl]-4,5-dihydro-5-(trifluoromethyl)-3-isoxazolyl]-N-(cyclopropylmethyl)-8-isoquinolinecarboxamide]
- mortality at 10 ppm [2]: ≥ 80%
- mortality at 50 ppm [2]: ≥ 80%
- mortality at 10 ppm [3]: ≥ 50%
- mortality at 50 ppm [3]: ≥ 50%
- mortality at 10 ppm [4]: ≥ 80%
- mortality at 50 ppm [4]: ≥ 80%
- mortality at 10 ppm [6]: ≥ 80%
- mortality at 50 ppm [6]: ≥ 80%

SMILES: C#CCNC(=O)c1ccc(C2=NOC(c3cc(Cl)c(F)c(Cl)c3)(C(F)(F)F)C2)c2ccncc12 (stereo not shown) [Compound 48, 5-[5-(3,5-dichloro-4-fluorophenyl)-4,5-dihydro-5-(trifluoromethyl)-3-isoxazolyl]-N-2-propyn-1-yl-8-isoquinolinecarboxamide]
- mortality at 50 ppm [2]: ≥ 80%
- mortality at 50 ppm [5]: ≥ 80%
- mortality at 50 ppm [4]: ≥ 80%
- mortality at 50 ppm [6]: ≥ 80%

SMILES: O=C(NC1CC1)c1ccc(C2=NOC(c3ccc(F)c(C(F)(F)F)c3)(C(F)(F)F)C2)c2ccncc12 (stereo not shown) [Compound 55, N-cyclopropyl-5-[5-[4-fluoro-3-(trifluoromethyl)phenyl]-4,5-dihydro-5-(trifluoromethyl)-3-isoxazolyl]-8-isoquinolinecarboxamide]
- mortality at 50 ppm [2, 8]: ≥ 80%
- mortality at 50 ppm [5, 8]: ≥ 80%
- mortality at 10 ppm ([3]; 10 ppm spray, 13 days, read-out: mortality): ≥ 50%
- mortality at 50 ppm [3, 9]: ≥ 50%
- mortality at 10 ppm [4, 7]: ≥ 80%
- mortality at 50 ppm [4, 8]: ≥ 80%
- mortality at 50 ppm [6, 8]: ≥ 80%

SMILES: O=C(NCC1CC1)c1ccc(C2=NOC(c3ccc(F)c(C(F)(F)F)c3)(C(F)(F)F)C2)c2ccncc12 (stereo not shown) [Compound 58, N-(cyclopropylmethyl)-5-[5-[4-fluoro-3-(trifluoromethyl)phenyl]-4,5-dihydro-5-(trifluoromethyl)-3-isoxazolyl]-8-isoquinolinecarboxamide]
- mortality at 10 ppm [2, 7]: ≥ 80%
- mortality at 50 ppm [2, 8]: ≥ 80%
- mortality at 50 ppm [5, 8]: ≥ 80%
- mortality at 50 ppm [3, 9]: ≥ 50%
- mortality at 10 ppm [4, 7]: ≥ 80%
- mortality at 50 ppm [4, 8]: ≥ 80%
- mortality at 50 ppm [6, 8]: ≥ 80%

SMILES: C#CCNC(=O)c1ccc(C2=NOC(c3ccc(F)c(C(F)(F)F)c3)(C(F)(F)F)C2)c2ccncc12 (stereo not shown) [Compound 74, 5-[5-[4-fluoro-3-(trifluoromethyl)phenyl]-4,5-dihydro-5-(trifluoromethyl)-3-isoxazolyl]-N-2-propyn-1-yl-8-isoquinolinecarboxamide]
- mortality at 50 ppm [2, 8]: ≥ 80%
- mortality at 50 ppm [5, 8]: ≥ 80%
- mortality at 50 ppm [3, 9]: ≥ 50%
- mortality at 50 ppm [4, 8]: ≥ 80%
- mortality at 50 ppm [6, 8]: ≥ 80%

SMILES: O=C(NCc1ncccn1)c1ccc(C2=NOC(c3ccc(F)c(C(F)(F)F)c3)(C(F)(F)F)C2)c2ccncc12 (stereo not shown) [Compound 76]
- mortality ([5]; 10 ppm spray, 6 days): at least 80%

From patent publication US20220041582A1, “ISOXAZOLINE COMPOUNDS FOR CONTROLLING INVERTEBRATE PESTS” (FMC Corporation, priority 2018, published 2022)
